{"source": "patent US11981921B2", "about": "“TIL expansion processes using specific cytokine combinations and/or AKTi treatment” (Iovance Biotherapeutics, Inc., priority 2022, dated 2024)", "key": {"TIL": {"tested_on": "TIL", "test": "AKT inhibition during ex vivo TIL expansion (REP)", "format": "cell-based", "procedure": "Patient tumors from different indications were received, fragmented, and subjected to an expansion protocol for TIL manufacturing. Different doses (0.3 μM and 1 μM) of the pan-AKT inhibitor (AKTi) ipatasertib were added to the culture during ex vivo expansion. The expansion potential, as well as the phenotypic and functional characteristics of TIL were evaluated on the final TIL product."}, "TILs [1]": {"tested_on": "TILs", "description": "(§1) The overarching goal of these experiments is to examine the growth conditions during the whole expansion process of TILs to augment their stem-like attributes while improving their functional and phenotypic characteristics.\nPre-REP TILs from 3 different indications were thawed and REPped in a G-REX 24 well plate. Cytokines were given twice (Day 0 and Day 5 of pre-REP). The following conditions were included in the REP protocol used in 24-well G-Rex plates: • 1) Feeder:TIL ratio 250:1 with 5 million feeders and 20,000 TILs per well, OKT3 at 30 ng/mL, • 2) On day 0 the REP is initiated with 3 mL of CM2 with cytokines and compounds, • 3) On day five 5 mL of CM4 media was added to each well, • 4) All cytokines and compounds are added twice on day 0 and day 5."}, "TILs [2]": {"tested_on": "TILs", "conditions": "1 or 2 uM given once or twice, with IL-2 1000 IU/ml + IL-21 10 ng/ml", "description": "as §1\nFrozen pre-REP TILs were thawed and REPed under different conditions in 24-well GREX plates. […] Pre-REP TILs from 3 different indications were thawed and REPped in a G-REX 24 well plate. The following conditions were included in the REP protocol used in 24-well G-Rex plates: • 1) Feeder:TIL ratio 250:1 with 5 million feeders and 20,000 TILs per well, OKT3 at 30 ng/mL, • 2) On day 0 the REP is initiated with 3 mL of CM2 with cytokines and compounds, • 3) On day five 5 mL of CM4 media was added to each well, • 4) All cytokines and compounds are added twice on day 0 and day 5."}, "TILs [3]": {"tested_on": "TILs", "procedure": "This Example describes the evaluation of the effects of IL-21 (10 ng/ml)+ AZD5363 in combination with increasing doses of IL-2 or IL-15 and evaluation of the overall impact on preventing effector differentiation, promoting more stem-like attributes and improving functionality of TILs during REP. The overarching goal of these experiments is to examine the growth conditions during the whole expansion process of TILs to augment their stem-like attributes while improving their functional and phenotypic characteristics.\nFrozen pre-REP TILs were thawed and REPed under different conditions in 24-well GREX plates. Cytokines were given twice (Day 0 and Day 5 of pre-REP). Pre-REP TILs from 3 different indications were thawed and REPped in a G-REX 24 well plate. The following conditions were included in the REP protocol used in 24-well G-Rex plates: • 1) Feeder:TIL ratio 250:1 with 5 million feeders and 20,000 TILs per well, OKT3 at 30 ng/mL, • 2) On day 0 the REP is initiated with 3 mL of CM2 with cytokines and compounds, • 3) On day five 5 mL of CM4 media was added to each well, • 4) All cytokines and compounds are added twice on day 0 and day 5. The following conditions were tested: IL-2 3000 IU/mL, IL-2 2000 IU/mL, IL-2 1000 IU/mL, IL-2 3000 IU/mL+IL-21 10 ng/ml, IL-2 2000 IU/mL+IL-21 10 ng/ml, IL-2 1000 IU/mL+IL-21 10 ng/ml, IL-2 3000 IU/mL+IL-21 10 ng/ml+2 uM AZD5363 (added once), IL-2 2000 IU/mL+IL-21 10 ng/ml+2 uM AZD5363 (added once), IL-2 1000 IU/mL+IL-21 10 ng/ml+2 uM AZD5363 (added once), and IL-15 10 ng/ml+IL-21 10 ng/ml+1 uM AZD5363 (added twice).", "remark": "listed apart in the source"}, "TILs [4]": {"tested_on": "TILs", "test": "Evaluation of I-TIL process conditions (pre-REP and REP, 18 tumors)", "format": "cell-based", "procedure": "Tumors (N=18) were received and processed for both pre-REP and REP expansion to test and select a preferred set of conditions, nominated as the final I-TIL (invigorated TIL) conditions.\nCytokines were added twice on Day 0 and Day 5 of pre-REP.\nPre-REP cells were then frozen until all pre-REP samples were generated in order to initiate the REP together at the same time. Frozen pre-REP TILs were thawed and rested overnight in their corresponding conditions followed by REP in 24-well G-Rex plates. […] Cytokines were added twice on Day 0 and Day 5 and AZD5363 was only added once on Day 0 of REP."}, "KILR® THP-1 cells": {"tested_on": "KILR® THP-1 cells", "test": "TIL cytotoxicity in coculture with KILR THP-1 cells", "format": "cell-based", "conditions": "24 hrs coculture, 10:1, Invigo-T process", "procedure": "TILs were then tested for cytotoxicity in an allogeneic environment after coculture for 24 hrs with KILR® THP-1 cells at a 10:1 effector-to-target cell. […] TILs were next stimulated every 3 days with TransAct followed by coculture for 24 hrs with KILR® THP-1 cells before being assessed for cytotoxicity and IFNg expression (as measured byflow cytometry staining)."}, "[5]": {"conditions": "AKTi treatment during ex vivo expansion"}, "[6]": {"conditions": "with IL-15 10 ng/ml + IL-21 10 ng/ml"}}, "note": "Read-outs that look alike come from different tables or passages of the source."}
{"compound": "CC(C)NC[C@@H](C(=O)N1CCN(c2ncnc3c2[C@H](C)C[C@H]3O)CC1)c1ccc(Cl)cc1", "note": "[AKTi, ipatasertib]", "values": [{"measurement": "expansion and viability of TIL", "setting": "TIL; 1 μM dose, relative to control", "result": "equivalent"}, {"measurement": "population of less differentiated CD39−CD69− cells", "setting": "TIL; 1 μM dose, relative to control, present even after re-stimulation", "result": "doubled"}, {"measurement": "cytotoxicity of TIL", "setting": "TIL; [5]", "result": "increased cytotoxicity"}, {"measurement": "frequency of IFNγ+TNFα+CD8+ T cells", "setting": "TIL; [5]", "result": "increase"}, {"measurement": "expression of CD38 and transcription factors T-bet and Tox", "setting": "TIL; CD39−CD69− cells after re-stimulation", "result": "reduced expression"}]}
{"compound": "AZD5363", "values": [{"measurement": "effector differentiation, stem-like phenotype, functional responses, inhibitory receptor expression", "setting": "TILs [1]; [6]", "result": "induces many of the desired changes"}, {"measurement": "effects on increasing IFNg, TNFa and IL-2", "setting": "TILs [1]; with IL-15 + IL-21, vs IL-2 1000 IU/ml and IL-21 10 ng/ml", "result": "more pronounced"}, {"measurement": "phenotypic changes on TILs (inhibitory receptors, activation, stem-like qualities, functionality)", "setting": "TILs [2]", "result": "further beneficial phenotypic changes"}, {"measurement": "effector differentiation, stem-like phenotype, functional responses, inhibitory receptor expression", "setting": "TILs [3]; 2 uM given once, with IL-2 1000 IU/ml + IL-21 10 ng/ml", "result": "induces many of the desired changes"}, {"measurement": "activation state of TILs", "setting": "TILs [3]; IL-15 combination", "result": "further reduced"}, {"measurement": "effects on cytokine production, in particular IL-2", "setting": "TILs [3]; [6]", "result": "quite significant"}, {"measurement": "same effects with IL-15 instead of IL-2", "setting": "TILs [3]; with IL-15 10 ng/ml + IL-21 10 ng/ml, vs IL-2 combination", "result": "comparable"}, {"measurement": "effector differentiation, stem-like phenotype, functional responses, inhibitory receptor expression", "setting": "TILs [4]; 2 uM once on Day 0 of REP, with IL-15 10 ng/ml + IL-21 10 ng/ml", "result": "induces many of the desired changes"}, {"measurement": "effects on increasing IFNg, TNFa and IL-2", "setting": "TILs [4]; with IL-15 + IL-21, vs IL-2 1000 IU/ml + IL-21 10 ng/ml + AZD5363", "result": "more pronounced"}, {"measurement": "cytotoxicity with or without AZD5363", "setting": "KILR® THP-1 cells", "result": "no significant difference"}]}
{"compound": "IL-15: cytokine used at 10 ng/ml with IL-21 during REP", "values": [{"measurement": "yield and viability of the process", "setting": "TILs [4]; IL-15 conditions", "result": "significantly augmented"}]}
